Reference: patent US10813891B2, “Method of inhibiting chronification of pain” (priority 2011, dated 2020)
Read-outs that look alike come from different tables or passages of the source.

Tested on: CCI-SN rats
Assay type: in vivo, rat
Protocol: Male Sprague-Dawley rats (Charles River Laboratories, L'Arbresle, France), weighing 150-200 g on arrival, were used. Animals were maintained under controlled environmental conditions (22±1° C., 60% relative humidity, 12 h/12 h light/dark cycle, food and water ad libitum) starting from reception in the laboratory, for at least 1 week before any intervention or treatment and thereafter, until euthanasia.
Rats were anaesthetized as above and the common sciatic nerve was exposed. Using a dissection microscope (2× magnification), four chromic catgut (5-0) ligations were tied loosely with about 1 mm spacing, proximally to the sciatic trifurcation (Bennett and Xie, 1988). Finally, the skin and muscle were sewed using silk sutures (4-0). In sham-operated animals, the same surgery was performed, but the nerve was not ligated.
Tapentadol (1, 3 and 10 mg/kg i.p.), reboxetine (10 mg/kg i.p.), morphine (1 and 3 mg/kg s.c.) or their vehicle (0.9% NaCl) were injected acutely 14 days after surgery, when allodynia/hyperalgesia reached a plateau in both CCI-SN and CCI-ION rats. Behavioral tests were performed at various times for up to 4 h after injection. In drug association procedure, reboxetine or saline was administered 15 min before morphine or saline.
Subchronic treatment consisted of twice daily injections of tapentadol (10 mg/kg, i.p. at 10:00 am and 6:00 pm) or saline for 4 days starting on the 15th day after nerve ligation in both CCI-ION and CCI-SN rats. Animals were further injected with tapentadol (10 mg/kg i.p.) or saline at 10:00 am the following day (19th day post-surgery), and assessment of allodynia with von Frey filament tests (see below) was made at various times up to 4 hours after this injection. All rats were killed by decapitation 4 hours after the last injection for real-time qRT-PCR determinations of specific mRNAs in ganglia and central tissues (see below).
Before testing, each rat was habituated for 2 h as above, and mechanical sensitivity was then determined with a graded series of […] von Frey filaments, that produced a bending force of 6, 8, 10, 12, 15, 26, and 60 g, respectively. The stimuli were applied within the SN territory (lateral part of the hind paw sole). Each filament was tested three times on the nerve-injured side in increasing order starting with the filament producing the lowest force. As for the CCI-ION rats, the von Frey filaments were applied at least 3 seconds after the rat had returned to its initial resting state. The minimal force filament for which animals presented either a brisk paw withdrawal and/or an escape attempt in response to at least 2 out of the 3 stimulations allowed determination of the mechanical response threshold. The 60.00 g filament was chosen as the cutoff threshold to inhibit any tissue injury.
A—Two weeks after unilateral chronic constriction injury to the sciatic nerve, pressure threshold values (as g) to trigger nocifensive responses to von Frey filaments application onto the plantar surface of ipsilateral hindpaw were determined at various times after acute injection of tapentadol (1, 3 or 10 mg/kg, i.p.) or saline. B—On day 15 (D on abscissa) after nerve ligation, rats were treated subchronically with tapentadol (10 mg/kg, i.p., twice daily, at 10:00 AM and 6:00 PM) or saline for four days. On the following day (day 19 after surgery), both tapentadol- and saline-pretreated CCI-SN rats were injected with tapentadol (10 mg/kg, i.p.; 0 on abscissa) and then subjected to von Frey filaments' test applied to ipsilateral hindpaw for determination of pressure threshold values (as g) at various times thereafter.

## CC[C@@H](c1cccc(O)c1)[C@@H](C)CN(C)C [Tapentadol, (−)-(1R,2R)-3-(3-dimethylamino-1-ethyl-2-methyl-propyl)-phenol]
10 mg/kg i.p. twice daily for four days, challenge 10 mg/kg i.p. day 19
  anti-allodynic effect after subchronic pretreatment vs saline pretreatment: produced the same anti-allodynic effects
Acute 1 mg/kg i.p., first 15-30 min after injection, non significant
  increase in pressure threshold value: approximately 40%
Acute 3 mg/kg i.p.
  pressure threshold values (anti-allodynic effect): also increased pressure threshold values, but to a lower extent than 10 mg/kg i.p.
Acute 10 mg/kg i.p., 15-30 min after administration
  pressure threshold values (anti-allodynic effect): no longer differed from healthy control values
Acute 10 mg/kg i.p., 90 min after injection
  mechanical allodynia: mechanical allodynia did not significantly differ from that measured in saline-treated CCI-SN rats
